Data published in patent publication US12697477B2, “Device for delivery of antimicrobial agent into a medical device” (ICU Medical, Inc., priority 2011, dated 2026).

Columns and labels:
Assay type in all cases: cell-based
[1] = system: Candida albicans; experiment: Coated cap luer against Candida albicans seeded within the catheter's luer region; conditions: 50 μg coated on the cap's luer portion
Protocol: For instance, if using a chlorhexidine based antimicrobial, approximately 50 μg of chlorhexidine acetate can be effective in some embodiments. […] The caps containing the coated luers killed all of the Candida albicans that were seeded within the catheter's luer region. Within the same experiment, the Candida albicans remained viable when uncoated caps were used. Greater than 5 μg chlorhexidine acetate on the luer region is effective; 10 μg to 300 μg is preferred, and 30 μg to 80 μg is most preferred.

[2] = system: infection-causing organisms; experiment: Laboratory testing of the coated elongate member in standard hemodialysis catheters; conditions: 250 μg on the elongate member; catheters containing saline, heparin-saline, or saline with 4% sodium citrate
Protocol: The safety profile of the invention can be enhanced by limiting the amount of chlorhexidine acetate available to enter the bloodstream, the preferred maximum amount of chlorhexidine acetate on the elongate member is 2000 μg, more preferred is 1000 μg, and most preferred is 350 μg.

[3] = system: Candida albicans, Pseudomonas aeruginosa, Staphylococcus aureus, and Escherichia coli; experiment: Laboratory testing of elongate members in catheters under a variety of lock solutions and challenge organisms; conditions: lock solutions saline, heparinized-saline, 4% sodium citrate solution, human serum
Protocol: The minimum amount of antimicrobial agent on elongate member 33 was determined through laboratory testing in which elongate members were placed into catheters under a variety of lock solutions and challenge organisms. The type of lock solution was varied among saline, heparinized-saline, 4% sodium citrate solution, and human serum. A variety of challenge organisms were used, such as Candida albicans, Pseudomonas aeruginosa, Staphylococcus aureus, and Escherichia coli.

Q: How did the “kill of Candida albicans seeded within the catheter's luer region” value [1] turn out when `CC(=O)O.CC(=O)O.NC(=N\CCCCCC/N=C(N)/N=C(\N)Nc1ccc(Cl)cc1)/N=C(\N)Nc1ccc(Cl)cc1` [chlorhexidine acetate] was run?
A: killed all

Q: What about the “reduction in number of infection-causing organisms” value [2] of the same molecule?
A: > 10,000 ×

Q: And the “organisms killed in the catheter versus amount on the elongate member” value [3]?
A: dose response
